Key:
human OAT1 = biological target: T1, human OAT1 (Homo sapiens, UniProt Q4U2R8); experiment: cell-based
T1 sequence (Q4U2R8 1-563): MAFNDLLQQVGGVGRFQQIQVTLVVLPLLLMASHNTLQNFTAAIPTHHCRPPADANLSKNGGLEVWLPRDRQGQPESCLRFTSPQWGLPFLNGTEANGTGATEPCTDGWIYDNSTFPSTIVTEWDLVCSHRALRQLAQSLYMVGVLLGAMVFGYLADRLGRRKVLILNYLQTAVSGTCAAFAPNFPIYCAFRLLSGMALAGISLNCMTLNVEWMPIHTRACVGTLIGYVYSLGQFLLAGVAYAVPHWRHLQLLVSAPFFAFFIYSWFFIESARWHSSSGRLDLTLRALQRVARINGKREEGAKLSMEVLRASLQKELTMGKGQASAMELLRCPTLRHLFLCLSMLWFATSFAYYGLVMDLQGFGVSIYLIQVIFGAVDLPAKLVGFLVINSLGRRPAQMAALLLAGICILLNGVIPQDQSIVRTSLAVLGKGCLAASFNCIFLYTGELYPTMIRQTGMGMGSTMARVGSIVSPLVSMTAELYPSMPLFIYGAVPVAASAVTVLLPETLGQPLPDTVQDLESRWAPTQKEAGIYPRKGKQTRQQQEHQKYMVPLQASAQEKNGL

P-gp = P-gp (Homo sapiens, UniProt P08183); experiment: biochemical
P-gp, sequence (P08183 whole entry): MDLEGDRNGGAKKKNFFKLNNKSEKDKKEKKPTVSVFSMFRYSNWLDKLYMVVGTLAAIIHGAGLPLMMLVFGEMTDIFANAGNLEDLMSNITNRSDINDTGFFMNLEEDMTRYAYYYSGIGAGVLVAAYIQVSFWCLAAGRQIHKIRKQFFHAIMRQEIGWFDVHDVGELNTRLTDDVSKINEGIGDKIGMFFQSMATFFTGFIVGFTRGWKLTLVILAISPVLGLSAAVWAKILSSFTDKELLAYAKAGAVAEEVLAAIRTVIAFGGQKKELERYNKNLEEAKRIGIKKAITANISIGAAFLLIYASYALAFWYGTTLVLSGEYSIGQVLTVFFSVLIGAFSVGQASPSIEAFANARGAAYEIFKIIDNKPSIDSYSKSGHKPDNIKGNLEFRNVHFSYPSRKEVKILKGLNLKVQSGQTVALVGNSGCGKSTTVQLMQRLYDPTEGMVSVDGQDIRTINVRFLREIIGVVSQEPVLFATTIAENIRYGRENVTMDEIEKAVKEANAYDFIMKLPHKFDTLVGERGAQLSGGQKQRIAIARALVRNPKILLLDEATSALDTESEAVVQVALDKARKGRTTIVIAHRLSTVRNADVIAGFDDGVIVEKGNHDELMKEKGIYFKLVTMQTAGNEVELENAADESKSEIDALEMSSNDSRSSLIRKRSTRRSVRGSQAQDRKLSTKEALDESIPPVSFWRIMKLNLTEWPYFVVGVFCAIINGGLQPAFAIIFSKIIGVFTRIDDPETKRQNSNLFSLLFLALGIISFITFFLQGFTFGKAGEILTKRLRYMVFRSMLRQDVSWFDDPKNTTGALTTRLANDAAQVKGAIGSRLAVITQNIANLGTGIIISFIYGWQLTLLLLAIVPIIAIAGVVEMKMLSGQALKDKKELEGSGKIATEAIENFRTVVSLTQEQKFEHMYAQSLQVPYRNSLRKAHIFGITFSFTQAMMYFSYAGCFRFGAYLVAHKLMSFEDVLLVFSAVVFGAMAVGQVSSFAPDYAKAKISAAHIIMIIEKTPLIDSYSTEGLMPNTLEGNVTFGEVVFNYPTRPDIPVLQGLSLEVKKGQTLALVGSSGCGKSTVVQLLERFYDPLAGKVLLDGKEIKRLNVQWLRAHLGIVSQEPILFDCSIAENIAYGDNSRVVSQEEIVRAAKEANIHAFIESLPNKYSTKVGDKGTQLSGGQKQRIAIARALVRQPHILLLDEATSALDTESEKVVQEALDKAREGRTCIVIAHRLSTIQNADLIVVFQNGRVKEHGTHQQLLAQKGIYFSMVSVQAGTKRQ

human OATP2B1 = biological target: T2, human OATP2B1 (Homo sapiens, UniProt O94956); experiment: cell-based; conditions: IC50 OATP2B1, experimental, mean ± SD; stable cells; substrate ES
T2 sequence (O94956 1-709): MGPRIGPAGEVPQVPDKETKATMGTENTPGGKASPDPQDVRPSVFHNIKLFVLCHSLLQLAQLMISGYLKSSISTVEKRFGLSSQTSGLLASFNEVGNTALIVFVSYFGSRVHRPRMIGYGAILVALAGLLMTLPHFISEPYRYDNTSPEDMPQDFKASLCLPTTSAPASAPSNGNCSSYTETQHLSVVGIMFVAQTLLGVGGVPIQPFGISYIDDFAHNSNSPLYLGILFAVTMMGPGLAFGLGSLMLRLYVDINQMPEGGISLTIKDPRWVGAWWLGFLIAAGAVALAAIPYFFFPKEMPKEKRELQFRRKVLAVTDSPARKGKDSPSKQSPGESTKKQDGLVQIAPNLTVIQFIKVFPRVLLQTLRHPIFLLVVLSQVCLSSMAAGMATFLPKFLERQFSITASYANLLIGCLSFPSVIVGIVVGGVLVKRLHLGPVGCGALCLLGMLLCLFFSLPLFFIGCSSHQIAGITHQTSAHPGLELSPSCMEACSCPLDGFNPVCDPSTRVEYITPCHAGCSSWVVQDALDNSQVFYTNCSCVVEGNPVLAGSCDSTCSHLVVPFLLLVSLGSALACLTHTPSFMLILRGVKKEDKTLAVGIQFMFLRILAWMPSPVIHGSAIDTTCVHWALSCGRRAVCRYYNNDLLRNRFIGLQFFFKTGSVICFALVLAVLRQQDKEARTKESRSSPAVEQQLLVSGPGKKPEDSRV

human OCT2 = biological target: T3, human OCT2 (Homo sapiens, UniProt O15244); experiment: cell-based; conditions: IC50 OCT2, experimental, mean ± SD; substrate metformin
T3 sequence (O15244 1-555): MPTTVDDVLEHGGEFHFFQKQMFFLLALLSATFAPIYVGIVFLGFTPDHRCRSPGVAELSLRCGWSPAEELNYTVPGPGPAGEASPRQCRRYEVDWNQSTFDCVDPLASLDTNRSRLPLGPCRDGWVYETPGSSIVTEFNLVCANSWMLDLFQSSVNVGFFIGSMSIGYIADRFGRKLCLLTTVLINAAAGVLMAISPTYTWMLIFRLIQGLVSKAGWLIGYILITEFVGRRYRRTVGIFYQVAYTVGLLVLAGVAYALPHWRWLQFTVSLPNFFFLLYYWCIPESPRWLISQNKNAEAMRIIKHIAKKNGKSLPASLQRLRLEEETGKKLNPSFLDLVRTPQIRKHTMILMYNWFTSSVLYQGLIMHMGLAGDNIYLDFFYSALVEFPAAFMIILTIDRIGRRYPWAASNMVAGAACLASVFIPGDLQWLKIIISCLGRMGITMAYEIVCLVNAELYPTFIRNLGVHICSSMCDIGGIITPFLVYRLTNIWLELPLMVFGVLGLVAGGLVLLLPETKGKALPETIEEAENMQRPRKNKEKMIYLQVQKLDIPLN

human MATE2 = human MATE2 (Homo sapiens, UniProt Q86VL8)
human MATE2, sequence (Q86VL8 1-566 isoform Q86VL8-3): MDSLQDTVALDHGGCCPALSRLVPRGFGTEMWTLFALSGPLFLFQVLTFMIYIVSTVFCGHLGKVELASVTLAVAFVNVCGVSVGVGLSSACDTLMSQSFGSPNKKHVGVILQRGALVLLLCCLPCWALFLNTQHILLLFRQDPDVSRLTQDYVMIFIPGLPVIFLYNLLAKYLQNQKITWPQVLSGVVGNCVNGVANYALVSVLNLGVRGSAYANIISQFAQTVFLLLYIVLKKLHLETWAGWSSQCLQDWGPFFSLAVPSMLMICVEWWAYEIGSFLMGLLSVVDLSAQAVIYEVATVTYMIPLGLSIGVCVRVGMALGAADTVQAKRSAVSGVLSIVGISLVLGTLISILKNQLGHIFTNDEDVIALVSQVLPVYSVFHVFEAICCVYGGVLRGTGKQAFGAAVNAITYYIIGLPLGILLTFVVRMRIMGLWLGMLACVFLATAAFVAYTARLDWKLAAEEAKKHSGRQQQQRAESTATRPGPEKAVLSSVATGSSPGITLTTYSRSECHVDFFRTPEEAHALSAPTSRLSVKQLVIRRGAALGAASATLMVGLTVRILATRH

human OATP1B1 = biological target: T4, human OATP1B1 (Homo sapiens, UniProt Q9Y6L6); conditions: for potency difference of the inhibitor for [3H]-EG vs [3H]-ES as OATP1B1 probes: inhibits EG at one-tenth (or lower) the concentration that inhibits ES
T4 sequence (Q9Y6L6 1-691): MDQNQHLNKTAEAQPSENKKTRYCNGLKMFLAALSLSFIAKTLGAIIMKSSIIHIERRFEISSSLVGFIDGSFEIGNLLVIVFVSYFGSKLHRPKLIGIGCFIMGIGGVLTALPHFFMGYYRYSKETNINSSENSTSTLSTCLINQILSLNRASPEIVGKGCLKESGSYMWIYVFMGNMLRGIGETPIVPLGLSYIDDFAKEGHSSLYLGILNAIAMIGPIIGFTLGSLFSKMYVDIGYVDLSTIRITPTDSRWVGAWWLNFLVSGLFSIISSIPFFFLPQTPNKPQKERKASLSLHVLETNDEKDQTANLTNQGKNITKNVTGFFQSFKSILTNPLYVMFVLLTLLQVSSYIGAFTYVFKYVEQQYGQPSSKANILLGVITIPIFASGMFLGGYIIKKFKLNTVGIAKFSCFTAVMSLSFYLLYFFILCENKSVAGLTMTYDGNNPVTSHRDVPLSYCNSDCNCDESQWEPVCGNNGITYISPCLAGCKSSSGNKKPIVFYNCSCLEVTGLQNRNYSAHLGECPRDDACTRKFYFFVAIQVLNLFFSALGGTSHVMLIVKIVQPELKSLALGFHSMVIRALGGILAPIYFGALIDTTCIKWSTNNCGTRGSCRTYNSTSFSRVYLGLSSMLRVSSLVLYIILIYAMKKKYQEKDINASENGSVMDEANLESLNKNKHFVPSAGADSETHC

N#CC[C@H](C1CCCC1)n1cc(-c2ncnc3[nH]ccc23)cn1 [Ruxolitinib]
IC50 (human OAT1): > 100 µM | IC50 (P-gp): > 100 µM | IC50 (human OATP2B1): 17.4 ± 8.6 µM | IC50 (human OCT2): 10.7 ± 3.7 µM

CCOC(=O)c1c(CSc2ccccc2)n(C)c2cc(Br)c(O)c(CN(C)C)c12 [Umifenovir (Arbidol), Umifenovir]
IC50 (human OAT1): > 100 µM | IC50 (P-gp): 16 ± 2 µM | Cu,max/IC50 MATE2-K (human MATE2): 0.02 | IC50 (human OATP2B1): 3.5 ± 1.2 µM | Iu,in,max/IC50 OATP1B1 (human OATP1B1; human): 0.93 | IC50 (human OCT2): 14.9 ± 4.9 µM

CCC(CC)COC(=O)[C@H](C)N[P@](=O)(OC[C@H]1O[C@@](C#N)(c2ccc3c(N)ncnn23)[C@H](O)[C@@H]1O)Oc1ccccc1 [Remdesivir]
IC50 (human OAT1): > 100 µM | IC50 (P-gp): 14 µM | IC50 (human OATP2B1): 3.5 ± 0.4 µM | potency difference of the inhibitor for [3H]-EG vs [3H]-ES as OATP1B1 probes (human OATP1B1): > 10 fold

CCCc1nn(C)c2c(=O)[nH]c(-c3cc(S(=O)(=O)N4CCN(C)CC4)ccc3OCC)nc12 [Sildenafil]
IC50 (human OAT1): > 100 µM | IC50 (P-gp): 16 µM | Cu,max/IC50 MATE2-K (human MATE2): 0.003 | IC50 (human OATP2B1): 39 ± 12.8 µM | IC50 (human OCT2): 68 ± 20.1 µM

CC(C)CN(C[C@@H](O)[C@H](Cc1ccccc1)NC(=O)O[C@H]1CO[C@H]2OCC[C@H]21)S(=O)(=O)c1ccc(N)cc1 [Darunavir]
IC50 (human OAT1): 95 µM | IC50 (P-gp): 16 µM | IC50 (human OATP2B1): 30.6 ± 7.7 µM | potency difference of the inhibitor for [3H]-EG vs [3H]-ES as OATP1B1 probes (human OATP1B1): > 10 fold

— PMC8217266 (Clinical Pharmacology and Therapeutics, 2021)
